In patent US20130195926A1, “MODULATION OF NITRIC OXIDE SIGNALING TO NORMALIZE TUMOR VASCULATURE” (The General Hospital Corporation, priority 2007, published 2013):

Tested on: 10T1/2 cells
Assay: Transwell migration of 10T1/2 cells toward HUVECs
Type: cell-based
Method: FIGS. 13A-C show the role of the NO-sGC-cGMP pathway in perivascular cell recruitment and migration. (A) In bar graph form, cGMP production in cultured 10T1/2 cells in response to NO donor or PDE5 inhibitor. (B) In bar graph form, the migration of 10T1/2 cells in a transwell assay. 10T1/2 cell migration was assessed using Falcon HTS FluoroBlok inserts with 1 μm pores. GFP-expressing 10T1/2 cells were inoculated in the inserts, and HUVECs were inoculated in the outer well. Percent area of transwell filter covered by migrated 10T1/2 cells was determined. Medium only indicates no HUVECs in the outer well. ODQ, T-1032, Sildenafil, or Sildenafil+L-NMMA were added to the medium. *P<0.05 vs. control (HUVEC). (C) Images for transmigrated GFP-10T1/2 cells at the back side of the Fluoroblock insert after 10 hours with control vs. T-1032 treatment.
FIGS. 14A-B show the effect of PI3K inhibition on transwell migration of 10T1/2 cells toward HUVECs. 10T1/2 cell migration was assessed using Falcon HTS FluoroBlock inserts with 1 μm pores. GFP-expressing 10T1/2 cells were inoculated in the inserts and human umbilical vein endothelial cells (HUVECs) were inoculated in the outer well. (A) Images for transmigrated GFP-10T1/2 cells at the back side of the FluoroBlock insert after 16 hours. Images are 865 μm across. (B) Quantification of 10T1/2 cell transwell migration. Data are expressed as percentage relative to the control (HUVEC) migration of the same experimental batch. Medium represents no HUVECs in the outer well. LS294002 10 μM was added. n=4 each. *p<0.05 as compared to the control (HUVEC).
The effect of sGC inhibitor was next examined on 10T1/2 cell migration. […] Finally, the effect of PDE5 inhibitors on 10T1/2 cell migration was examined. […] L-NMMA abolished induction of 10T1/2 cell migration induced by Sildenafil. (Mann-Whitney U-test).
To elucidate the downstream signaling pathway of NO-dependent perivascular cell recruitment, the effect of PI3K inhibitor […] (10 μM) on the transwell 10T1/2 cell migration toward HUVECs was determined (FIG. 14A-B).

CCCc1nn(C)c2c(=O)[nH]c(-c3cc(S(=O)(=O)N4CCN(C)CC4)ccc3OCC)nc12 [Sildenafil]
10T1/2 cell migration (40 nM): significantly enhanced

O=c1cc(N2CCOCC2)oc2c(-c3ccccc3)cccc12 [LY291002]
transwell 10T1/2 cell migration toward HUVECs (10 μM, 16 hours): significantly inhibited

O=c1onc2cnc3ccccc3n12 [ODQ]
10T1/2 cell migration to HUVECs (10μM): significantly reduced
